Among the data in patent publication US10584115B2, “Substituted pyridine and pyrazine BMI-1 inhibitors” (PTC Therapeutics, Inc., priority 2013, dated 2020) are EC50 values, retold here.

In one assay the test system is Bmi-1 protein. Description: Sandwich ELISA Assay (Bmi-1 protein level in HT-1080 cells after compound treatment). The class given is cell-based. The note with it: Table 1, Bmi-1 sandwich ELISA, read-out: ELISA EC50 value for Bmi-1 protein. An outline of the steps: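 Sandwich ELISA quantified Bmi-1 protein against recombinant standard (125–8000 pg/mL), with lysates captured overnight at 4 °C and signal by HRP/TMB at 450 nm (570 nm reference). Lysates came from HT-1080 cells incubated 40–48 h with test compounds in 0.5% DMSO.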
On the technique in general: An ELISA detects its analyte on a solid surface through an enzyme-linked reagent.
For the compound `CCCc1ccc(Nc2cncc(-n3c(C)nc4ccccc43)n2)cc1` [compound 663, 6-(2-methyl-1H-benzimidazol-1-yl)-N-(4-propylphenyl)pyrazin-2-amine], the EC50 (in general, the midpoint of the concentration-response curve) is 10 to 100 nM.

Consider `CCNc1nc2ccccc2n1-c1cncc(Nc2ccc(C(F)(F)F)cc2)n1` [compound 138, N-ethyl-1-(6-{[4-(trifluoromethyl)phenyl]amino}pyrazin-2-yl)-1H-benzimidazol-2-amine], for which the EC50 lay within 10 to 100 nM. Consider `Cc1nc2ccccc2n1-c1cccc(Nc2ccc(OC(F)F)cc2)n1` [Cpd 35, N-[4-(difluoromethoxy)phenyl]-6-(2-methyl-1H-benzimidazol-1-yl)pyridin-2-amine], for which the EC50 is 10 to 100 nM.

As for `CCc1nc2ncc(Cl)cc2n1-c1cncc(Nc2ccc(C(F)(F)F)cc2)n1` [compound 543, 6-(6-chloro-2-ethyl-1H-imidazo[4,5-b]pyridin-1-yl)-N-[4-(trifluoromethyl)phenyl]pyrazin-2-amine], the EC50 fell in the range of 100 to 3000 nM. The same measure, in the same setting: the result for `FC(F)(F)c1ccc(Nc2cncc(-c3ccnc4cc(Cl)ccc34)n2)cc1` [compound 385, 6-(7-chloroquinolin-4-yl)-N-[4-(trifluoromethyl)phenyl]pyrazin-2-amine] reads 100 to 3000 nM; that for `Cc1nc2ncccc2n1-c1cncc(Nc2ccc(C(F)(F)F)cc2)n1` [compound 82, 6-(2-methyl-1H-imidazo[4,5-b]pyridin-1-yl)-N-[4-(trifluoromethyl)phenyl]pyrazin-2-amine], 10 to 100 nM. Still for that read-out and setting: the result for `Cc1nc2ccc(OC(F)(F)F)cc2n1-c1cncc(Nc2ccc(C(F)(F)F)cc2)n1` [compound 357, 6-[2-methyl-6-(trifluoromethoxy)-1H-benzimidazol-1-yl]-N-[4-(trifluoromethyl)phenyl]pyrazin-2-amine] reads 100 to 3000 nM. Consider `Cc1nn2ccccc2c1-c1cncc(Nc2ccc(F)cc2)n1` [compound 568, N-(4-fluorophenyl)-6-(2-methylpyrazolo[1,5-a]pyridin-3-yl)pyrazin-2-amine], for which the EC50 was in the range of 100 to 3000 nM.

`Cc1nc2ccc(C(F)(F)F)cc2n1-c1cncc(Nc2ccc(C(F)(F)F)cc2)n1` [compound 340, 6-[2-methyl-6-(trifluoromethyl)-1H-benzimidazol-1-yl]-N-[4-(trifluoromethyl)phenyl]pyrazin-2-amine]: the EC50 fell in the range of 100 to 3000 nM. Still for that read-out and setting: then `Cc1ccc(Nc2cncc(-c3c(C)nn4ccccc34)n2)cc1` [compound 566, N-(4-methylphenyl)-6-(2-methylpyrazolo[1,5-a]pyridin-3-yl)pyrazin-2-amine], with 1 to 10 nM; and `CCSc1nc2ccccc2n1-c1cncc(Nc2ccc(C(F)(F)F)cc2)n1` [compound 79, 6-[2-(ethylsulfanyl)-1H-benzimidazol-1-yl]-N-[4-(trifluoromethyl)phenyl]pyrazin-2-amine], with 10 to 100 nM. Consider `Cc1nc2ccccc2n1-c1cc(F)cc(Nc2ccc(OC(F)F)cc2)n1` [compound 499, N-[4-(difluoromethoxy)phenyl]-4-fluoro-6-(2-methyl-1H-benzimidazol-1-yl)pyridin-2-amine], for which the EC50 fell in the range of 10 to 100 nM. In the case of `FC(F)(F)c1ccc(Nc2cncc(-c3cccc4[nH]ccc34)n2)cc1` [compound 407, 6-(1H-indol-4-yl)-N-[4-(trifluoromethyl)phenyl]pyrazin-2-amine], the EC50 lay in the range of 100 to 3000 nM. The same measure, in the same setting: then `Cc1nc2cc(F)c(F)cc2n1-c1cncc(Nc2ccc(C(F)(F)F)nc2)n1` [compound 304, 6-(5,6-difluoro-2-methyl-1H-benzimidazol-1-yl)-N-[6-(trifluoromethyl)pyridin-3-yl]pyrazin-2-amine], with 10 to 100 nM; and `COc1ccc2nc(C(F)(F)F)c(-c3cncc(Nc4ccc(C(F)(F)F)cc4)n3)n2c1` [Cpd 46, 6-[6-methoxy-2-(trifluoromethyl)imidazo[1,2-a]pyridin-3-yl]-N-[4-(trifluoromethyl)phenyl]pyrazin-2-amine], with 10 to 100 nM. On the same count and under the same terms, then `Cc1nn(C)c(Cl)c1-c1cncc(Nc2ccc(OC(F)F)cc2)n1` [compound 413, 6-(5-chloro-1,3-dimethyl-1H-pyrazol-4-yl)-N-[4-(difluoromethoxy)phenyl]pyrazin-2-amine], with 1 to 10 nM. On the same count and under the same terms, then `Cc1cccc2c1nc(C)n2-c1cncc(Nc2ccc(C(F)(F)F)cc2)n1` [compound 283, 6-(2,4-dimethyl-1H-benzimidazol-1-yl)-N-[4-(trifluoromethyl)phenyl]pyrazin-2-amine], with 10 to 100 nM; and `Cc1nc2cc(F)c(F)cc2n1-c1cncc(Nc2ccc(Cl)c(F)c2)n1` [compound 294, N-(4-chloro-3-fluorophenyl)-6-(5,6-difluoro-2-methyl-1H-benzimidazol-1-yl)pyrazin-2-amine], with 100 to 3000 nM; and `Cc1nc(C(F)(F)F)cn1-c1cncc(Nc2ccc(C(F)(F)F)cc2)n1` [compound 303, 6-[2-methyl-4-(trifluoromethyl)-1H-imidazol-1-yl]-N-[4-(trifluoromethyl)phenyl]pyrazin-2-amine], with 100 to 3000 nM. Turning to `COc1ccc2nc(C(F)(F)F)c(-c3cncc(Nc4ccc(OC(F)(F)F)cc4)n3)n2c1` [Cpd 45, 6-[6-methoxy-2-(trifluoromethyl)imidazo[1,2-a]pyridin-3-yl]-N-[4-(trifluoromethoxy)phenyl]pyrazin-2-amine], the EC50 fell in the range of 10 to 100 nM. On the same count and under the same terms, then `Cc1nc(C)n(-c2cncc(Nc3ccc(OC(F)F)cc3)n2)c1Cl` [compound 305, 6-(5-chloro-2,4-dimethyl-1H-imidazol-1-yl)-N-[4-(difluoromethoxy)phenyl]pyrazin-2-amine], with 100 to 3000 nM; and `COc1nc2ccccc2n1-c1cncc(Nc2ccc(C(F)(F)F)cc2)n1` [compound 77, 6-(2-methoxy-1H-benzimidazol-1-yl)-N-[4-(trifluoromethyl)phenyl]pyrazin-2-amine], with 10 to 100 nM; and `Cc1nc2ncc(Cl)cc2n1-c1cc(C#N)cc(Nc2ccc(OC(F)F)c(F)c2)n1` [compound 429, 2-(6-chloro-2-methyl-1H-imidazo[4,5-b]pyridin-1-yl)-6-{[4-(difluoromethoxy)-3-fluorophenyl]amino}pyridine-4-carbonitrile], with 1 to 10 nM. Still for that read-out and setting: then `N#Cc1cc(Nc2ccc(OC(F)F)cc2)nc(-c2c(C(F)(F)F)nc3ccccn23)c1` [Cpd 217, 2-{[4-(difluoromethoxy)phenyl]amino}-6-[2-(trifluoromethyl)imidazo[1,2-a]pyridin-3-yl]pyridine-4-carbonitrile], with 1 to 10 nM; and `Cc1nc2ccccc2n1-c1cncc(Nc2ccc(C(F)(F)F)cc2F)n1` [compound 644, N-[2-fluoro-4-(trifluoromethyl)phenyl]-6-(2-methyl-1H-benzimidazol-1-yl)pyrazin-2-amine], with 10 to 100 nM. On the same count and under the same terms, the result for `Cc1nc(C)n(-c2cncc(Nc3ccc(C(F)(F)F)cc3)n2)c1Cl` [compound 299, 6-(5-chloro-2,4-dimethyl-1H-imidazol-1-yl)-N-[4-(trifluoromethyl)phenyl]pyrazin-2-amine] reads 100 to 3000 nM. With `Cc1nc2ccccc2n1-c1cc(C#N)cc(Nc2ccc(OC(F)(F)F)cc2)n1` [Cpd 136, 2-(2-methyl-1H-benzimidazol-1-yl)-6-{[4-(trifluoromethoxy)phenyl]amino}pyridine-4-carbonitrile], the EC50 was 10 to 100 nM.

On to `CCc1nc2cc(F)c(F)cc2n1-c1cc(N)cc(Nc2ccc(C(F)(F)F)cc2)n1` [compound 503, 6-(2-ethyl-5,6-difluoro-1H-benzimidazol-1-yl)-N^2-[4-(trifluoromethyl)phenyl]pyridine-2,4-diamine], for which the EC50 lay within 10 to 100 nM.

Take `FC(F)(F)c1nc2ccccn2c1-c1cccc(Nc2ccc(Cl)cc2)n1` [Cpd 17, N-(4-chlorophenyl)-6-[2-(trifluoromethyl)imidazo[1,2-a]pyridin-3-yl]pyridin-2-amine]: the EC50 was 1 to 10 nM. Same read-out and setting: then `FC(F)(F)Oc1ccc(Nc2cncc(-c3c(C(F)(F)F)nc4sccn34)n2)cc1` [compound 120, N-[4-(trifluoromethoxy)phenyl]-6-[6-(trifluoromethyl)imidazo[2,1-b][1,3]thiazol-5-yl]pyrazin-2-amine], with 10 to 100 nM; and `Cc1nc2cc(F)c(F)cc2n1-c1cncc(Nc2ccc(Cl)cc2)n1` [compound 575, N-(4-chlorophenyl)-6-(5,6-difluoro-2-methyl-1H-benzimidazol-1-yl)pyrazin-2-amine], with 10 to 100 nM.

As to `Cc1nc2ccc(F)cn2c1-c1cncc(Nc2ccc(OC(F)F)c(F)c2)n1` [compound 309, N-[4-(difluoromethoxy)-3-fluorophenyl]-6-(6-fluoro-2-methylimidazo[1,2-a]pyridin-3-yl)pyrazin-2-amine], the EC50 is 1 to 10 nM. As for `FC(F)(F)c1ccc(Nc2cncc(-c3c(C(F)(F)F)nc4ccccn34)n2)nc1` [Cpd 190, 6-[2-(trifluoromethyl)imidazo[1,2-a]pyridin-3-yl]-N-[5-(trifluoromethyl)pyridin-2-yl]pyrazin-2-amine], the EC50 lay in the range of 10 to 100 nM. The same measure, in the same setting: then `Cc1nc2ccccc2n1-c1c[n+]([O-])cc(Nc2ccc(OC(F)F)cc2)n1` [compound 531, N-[4-(difluoromethoxy)phenyl]-6-(2-methyl-1H-benzimidazol-1-yl)pyrazin-2-amine 4-oxide], with 10 to 100 nM.

The assay is the same for the next values; noted with them: read-out: ELISA EC50 value for Bmi-1 protein, Table 1, Bmi-1 sandwich ELISA.
Consider `COc1ccc(Nc2cc(C#N)cc(-c3c(C(F)(F)F)nc4ccccn34)n2)cc1` [Cpd 42, 2-[(4-methoxyphenyl)amino]-6-[2-(trifluoromethyl)imidazo[1,2-a]pyridin-3-yl]pyridine-4-carbonitrile], for which the EC50 was in the range of 1 to 10 nM. The same measure, in the same setting: then `COc1ccc(Nc2nc(-n3c(C)nc4ccccc43)ccc2N)cc1` [Cpd 518, N^2-(4-methoxyphenyl)-6-(2-methyl-1H-benzimidazol-1-yl)pyridine-2,3-diamine], with 10 to 100 nM; and `FC(F)(F)c1ccc(Nc2cncc(-c3c(C(F)(F)F)nc4ncccn34)n2)cc1` [Cpd 67, 6-[2-(trifluoromethyl)imidazo[1,2-a]pyrimidin-3-yl]-N-[4-(trifluoromethyl)phenyl]pyrazin-2-amine], with 10 to 100 nM.
